Data from paper PMC5125662, “The Open Form Inducer Approach for Structure-Based Drug Design” (PLoS ONE, 2016).
Like-named read-outs stand apart in the source and are kept apart here.

Legend:
TcDHODH = biological target: T1, TcDHODH (Trypanosoma cruzi, UniProt Q4D3W2); assay: biochemical; conditions: for IC50: 500 μM L-dihydroorotate, 2 mM fumarate, pH 8.0; for Ki: read-out: TcDHODH Ki^app
T1 construct: made in house
T1 sequence (Q4D3W2 1-314): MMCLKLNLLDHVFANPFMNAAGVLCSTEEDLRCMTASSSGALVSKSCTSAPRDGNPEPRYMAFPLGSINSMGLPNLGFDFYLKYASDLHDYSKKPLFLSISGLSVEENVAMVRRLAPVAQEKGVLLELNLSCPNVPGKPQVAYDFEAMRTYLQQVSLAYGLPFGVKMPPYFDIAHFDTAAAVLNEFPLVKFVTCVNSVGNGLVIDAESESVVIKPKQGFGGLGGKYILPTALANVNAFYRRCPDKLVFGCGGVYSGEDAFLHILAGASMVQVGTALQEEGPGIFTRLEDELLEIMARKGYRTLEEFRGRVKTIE

[1] = parameters: method as in earlier work; conditions: cited from earlier work

| IC50 (TcDHODH) [µM] | Ki (TcDHODH; calculated from IC50 by Cheng-Prusoff equation, Km for dihydroorotate […]) [µM] | Ki (TcDHODH) [µM] | Compound | pKa [1] |
| --- | --- | --- | --- | --- |
| 112 ± 21 | 5.51 | – | O=C(O)c1cc(=O)[nH]c(=O)[nH]1 [ORO, orotate, reference compound] | – |
| – | – | – | O=C(O)c1ccc2ccccc2c1 [2-naphthoic acid] | 4.17 |
| ≥ 400 | – | > 19.7 | CC(C)(C)CCc1c(C(=O)O)[nH]c(=O)[nH]c1=O [Compound 1] | – |
